Measured values: patent publication US20100298141A1, “SUBSTITUTED PYRIDINE N-OXIDE HERBICIDES” (E. I. DU PONT DE NEMOURS AND COMPANY, priority 2007, published 2010)

Columns and labels:
morningglory = experiment: Test A pre-/postemergence greenhouse test; assay type: in vivo, Ipomoea spp.; settings: for Plant response rating, Morningglory: 0 to 100 scale where 0 is no effect and 100 is complete control; for Morningglory plant response rating: 0 to 100 scale
In short: (§1)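 Pots of loam–sand soil sown with the test species are sprayed preemergence on the soil surface; emerged seedlings (1–2 leaves, 2–10 cm) are sprayed postemergence at the same time. The vehicle is a non-phytotoxic solvent mixture with surfactant. Injury is scored visually after ~10 d in greenhouse.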

wheat [1] = experiment: Test C pre-/postemergence test; assay type: in vivo, Triticum aestivum
In short: (§2)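 Compounds in a non-phytotoxic solvent with surfactant applied preemergence to seeded pots and, at the same time, postemergence to plants 2–18 cm tall (1- to 4-leaf stage). Paddy tests: pots flooded to 3 cm, compound applied into the water, depth held throughout.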

Surinam grass = experiment: Test C pre-/postemergence test; assay type: in vivo, Brachiaria decumbens
In short: as §2

lambsquarters = experiment: Test C pre-/postemergence test; assay type: in vivo, Chenopodium album; settings: Postemergence; for Plant response rating, Lambsquarters: scale 0 to 100, 0 no effect, 100 complete control
In short: as §2

bermudagrass = experiment: Test C pre-/postemergence test; assay type: in vivo, Cynodon dactylon
In short: as §2

rice = experiment: Test C flooded paddy test; assay type: in vivo, Oryza sativa; settings: Flood
In short: (§3)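 Test compounds are applied straight into paddy water held 3 cm above the soil surface, with that flood maintained for the whole test. After 13 to 15 days in the greenhouse, each species is scored visually relative to controls.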

umbrella sedge = experiment: Test C flooded paddy test; assay type: in vivo, Cyperus difformis; settings: Flood
In short: as §3

barnyardgrass = experiment: Test A pre-/postemergence greenhouse test; assay type: in vivo, Echinochloa crus-galli; settings: for Plant response rating, Barnyardgrass: 0 to 100 scale where 0 is no effect and 100 is complete control; for Barnyardgrass plant response rating: 0 to 100 scale
In short: as §1

corn = experiment: Test A pre-/postemergence greenhouse test; assay type: in vivo, Zea mays; settings: for Plant response rating, Corn: 0 to 100 scale where 0 is no effect and 100 is complete control; for Corn plant response rating: 0 to 100 scale
In short: as §1

wheat [2] = experiment: Test A pre-/postemergence greenhouse test; assay type: in vivo, Triticum aestivum; settings: for Plant response rating, Wheat: 0 to 100 scale where 0 is no effect and 100 is complete control; for Wheat plant response rating: 0 to 100 scale
In short: as §1

redroot pigweed = experiment: Test A pre-/postemergence greenhouse test; assay type: in vivo, Amaranthus retroflexus; settings: for Plant response rating, Pigweed: 0 to 100 scale where 0 is no effect and 100 is complete control; for Pigweed plant response rating: 0 to 100 scale
In short: as §1

pigweed = experiment: Test C pre-/postemergence test; assay type: in vivo, Amaranthus retroflexus
In short: as §2

crabgrass = experiment: Test C pre-/postemergence test; assay type: in vivo, Digitaria sanguinalis
In short: as §2

giant foxtail = experiment: Test A pre-/postemergence greenhouse test; assay type: in vivo, Setaria faberi; settings: for Plant response rating, Foxtail, Giant: 0 to 100 scale where 0 is no effect and 100 is complete control; for Foxtail, Giant plant response rating: 0 to 100 scale
In short: as §1

[3] = system: common (oilseed) sunflower; experiment: Test C pre-/postemergence test; assay type: in vivo, Helianthus annuus
Description: Seeds of plant species selected from blackgrass (Alopecurus myosuroides), downy brome (Bromus tectorum), green foxtail (Setaria viridis), Italian ryegrass (Lolium multiflorum), wheat (Triticum aestivum), wild oat (Avena fatua), catchweed bedstraw (Galium aparine), Russian thistle (Salsola kali), […] (Cynodon dactylon), Surinam grass (Brachiaria decumbens), cocklebur (Xanthium strumarium), corn (Zea mays), crabgrass (Digitaria sanguinalis), woolly cupgrass (Eriochloa villosa), giant foxtail (Setaria faberii), Goosegrass (Eleusin indica), johnsongrass (Sorghum halepense), kochia (Kochia scoparia), lambsquarters (Chenopodium album), morningglory (Ipomoea coccinea), eastern black nightshade (Solanum ptycanthum), yellow nutsedge (Cyperus esculentus), pigweed (Amaranthus retroflexus), common ragweed (Ambrosia elation), soybean (Glycine max), common (oilseed) sunflower (Helianthus annuus), and velvetleaf (Abutilon theophrasti) were planted and treated preemergence with test chemicals formulated in a non-phytotoxic solvent mixture which included a surfactant. At the same time, plants selected from these crop and weed species and also winter barley (Hordeum vulgare), canarygrass (Phalaris minor), and chickweed (Stellaria media) were treated with postemergence applications of some of the test chemicals formulated in the same manner. Plants ranged in height from 2 to 18 cm (1- to 4-leaf stage) for postemergence treatments. […] At time of treatment, test pots were flooded to 3 cm above the soil surface, treated by application of test compounds directly to the paddy water, and then maintained at that water depth for the duration of the test. […] A dash (-) response means no test result.

Goosegrass = experiment: Test C pre-/postemergence test; assay type: in vivo, Eleusin indica
In short: as §2

[4] = Postemergence, 500 g ai/ha, 0 is no effect, 100 is complete control
[5] = Preemergence, 125 g ai/ha, 0 no effect, 100 complete control
[6] = 62 g ai/ha, Preemergence, scale 0 to 100
[7] = 125 g ai/ha, preemergence, scale 0 (no effect) to 100 (complete control)
[8] = Postemergence, 125 g ai/ha, scale 0 to 100, 0 no effect, 100 complete control
[9] = Postemergence, 250 g ai/ha, scale 0 to 100, 0 no effect, 100 complete control
[10] = Preemergence, 31 g ai/ha, scale 0 to 100 (0 no effect, 100 complete control)
[11] = preemergence, 250 g ai/ha, scale 0 (no effect) to 100 (complete control)
[12] = Postemergence, 62 g ai/ha, scale 0 to 100, 0 no effect, 100 complete control
[13] = 62 g ai/ha, scale 0 to 100 (0 no effect, 100 complete control)
[14] = 250 g ai/ha, scale 0 to 100, 0 no effect, 100 complete control, 13 to 15 days

CCn1nc(C(F)(F)F)c(CS(=O)(=O)c2cc(C)cc[n+]2[O-])c1OCC(F)(F)F [Compound 64]
Plant response rating, Morningglory (morningglory; Postemergence, 125 g ai/ha): 30 | Morningglory plant response rating (morningglory; [4]): 60 | Morningglory plant response rating (morningglory; [5]): 30 | Plant response rating, Morningglory (morningglory; Preemergence, 500 g ai/ha): 80 | Wheat plant response rating (wheat [1]; [6]): 20 | Wheat plant response rating (wheat [1]; [7]): 30 | Plant response rating (0 to 100), Wheat (wheat [1]; Postemergence, 31 g ai/ha): 0 | Plant response rating (0 to 100), Wheat (wheat [1]; Postemergence, 62 g ai/ha): 50 | Plant response rating, Wheat (wheat [1]; [8]): 65 | Plant response rating, Wheat (wheat [1]; [9]): 65 | Plant response rating, Wheat (wheat [1]; [10]): 0 | Wheat plant response rating (wheat [1]; [11]): 100 | Surinam Grass plant response rating (Surinam grass; [6]): 100 | Surinam Grass plant response rating (Surinam grass; [7]): 100 | Plant response rating (0 to 100), Surinam Grass (Surinam grass; Postemergence, 31 g ai/ha): 0 | Plant response rating (0 to 100), Surinam Grass (Surinam grass; Postemergence, 62 g ai/ha): 0 | Plant response rating, Surinam Grass (Surinam grass; [8]): 0 | Plant response rating, Surinam Grass (Surinam grass; [9]): 40 | Plant response rating, Surinam Grass (Surinam grass; [10]): 95 | Surinam Grass plant response rating (Surinam grass; [11]): 100 | Plant response rating (0 to 100), Lambsquarters (lambsquarters; 31 g ai/ha): 0 | Plant response rating, Lambsquarters (lambsquarters; 62 g ai/ha): 0 | Plant response rating, Lambsquarters (lambsquarters; 125 g ai/ha): 0 | Plant response rating, Lambsquarters (lambsquarters; 250 g ai/ha): 0 | Bermudagrass plant response rating (bermudagrass; 62 g ai/ha, Preemergence, scale 0 to 100 (0 no effect, 100 complete control)): 100 | Bermudagrass plant response rating (bermudagrass; [7]): 100 | Plant response rating (0 to 100), Bermudagrass (bermudagrass; Postemergence, 31 g ai/ha): 0 | Plant response rating, Bermudagrass (bermudagrass; [12]): 0 | Plant response rating, Bermudagrass (bermudagrass; [8]): 0 | Plant response rating, Bermudagrass (bermudagrass; [9]): 40 | Plant response rating, Bermudagrass (bermudagrass; [10]): 100 | Bermudagrass plant response rating (bermudagrass; [11]): 100 | Plant response rating, Rice (rice; [13]): 0 | Plant response rating, Rice (rice; [14]): 60 | Plant response rating, Sedge, Umbrella (umbrella sedge; [13]): 80 | Plant response rating, Sedge, Umbrella (umbrella sedge; [14]): 100 | Plant response rating, Barnyardgrass (barnyardgrass; Postemergence, 125 g ai/ha): 90 | Barnyardgrass plant response rating (barnyardgrass; [4]): 90 | Barnyardgrass plant response rating (barnyardgrass; [5]): 70 | Plant response rating, Barnyardgrass (barnyardgrass; Preemergence, 500 g ai/ha): 100 | Plant response rating, Corn (corn; Postemergence, 125 g ai/ha): 40 | Corn plant response rating (corn; [4]): 50 | Corn plant response rating (corn; [5]): 0 | Plant response rating, Corn (corn; Preemergence, 500 g ai/ha): 60 | Plant response rating, Wheat (wheat [2]; Postemergence, 125 g ai/ha): 50 | Wheat plant response rating (wheat [2]; [4]): 60 | Wheat plant response rating (wheat [2]; [5]): 40 | Plant response rating, Wheat (wheat [2]; Preemergence, 500 g ai/ha): 70 | Plant response rating, Pigweed (redroot pigweed; Postemergence, 125 g ai/ha): 70 | Pigweed plant response rating (redroot pigweed; [4]): 80 | Pigweed plant response rating (redroot pigweed; [5]): 50 | Plant response rating, Pigweed (redroot pigweed; Preemergence, 500 g ai/ha): 100 | Pigweed plant response rating (pigweed; [6]): 95 | Pigweed plant response rating (pigweed; [7]): 100 | Plant response rating (0 to 100), Pigweed (pigweed; Postemergence, 31 g ai/ha): 0 | Plant response rating (0 to 100), Pigweed (pigweed; Postemergence, 62 g ai/ha): 0 | Plant response rating, Pigweed (pigweed; [8]): 0 | Plant response rating, Pigweed (pigweed; [9]): 5 | Plant response rating, Pigweed (pigweed; [10]): 95 | Pigweed plant response rating (pigweed; [11]): 100 | Crabgrass, Large plant response rating (crabgrass; [6]): 100 | Crabgrass, Large plant response rating (crabgrass; [7]): 100 | Plant response rating (0 to 100), Crabgrass, Large (crabgrass; Postemergence, 31 g ai/ha): 0 | Plant response rating, Crabgrass, Large (crabgrass; [12]): 0 | Plant response rating, Crabgrass, Large (crabgrass; [8]): 0 | Plant response rating, Crabgrass, Large (crabgrass; [9]): 20 | Plant response rating, Crabgrass, Large (crabgrass; [10]): 98 | Crabgrass, Large plant response rating (crabgrass; [11]): 100 | Plant response rating, Foxtail, Giant (giant foxtail; Postemergence, 125 g ai/ha): 80 | Foxtail, Giant plant response rating (giant foxtail; [4]): 90 | Foxtail, Giant plant response rating (giant foxtail; [5]): 100 | Plant response rating, Foxtail, Giant (giant foxtail; Preemergence, 500 g ai/ha): 100 | Sunflower plant response rating [3, 6]: 30 | Sunflower plant response rating [3, 7]: 80 | Plant response rating, Sunflower [3, 10]: 0 | Sunflower plant response rating [3, 11]: 95 | Goosegrass plant response rating (Goosegrass; [6]): 100 | Goosegrass plant response rating (Goosegrass; [7]): 100 | Plant response rating (0 to 100), Goosegrass (Goosegrass; Postemergence, 31 g ai/ha): 0 | Plant response rating, Goosegrass (Goosegrass; [12]): 0 | Plant response rating, Goosegrass (Goosegrass; [8]): 0 | Plant response rating, Goosegrass (Goosegrass; [9]): 55 | Plant response rating, Goosegrass (Goosegrass; [10]): 95 | Goosegrass plant response rating (Goosegrass; [11]): 100
